Measurements taken from patent publication US12435061B2 (priority 2020, dated 2025).
Read-outs that look alike come from different tables or passages of the source.

Assays:
[1] = tested on: SLIGRL-NH2 (PAR2 agonist peptide) induced itching in mice; experiment: Efficacy of oral KM-023 in SLIGRL-NH2 itching mouse model; type: in vivo; conditions: for Decrease of number of scratches: 30 min before SLIGRL induction, 30 minutes post induction
Description: The aim of this study is to evaluate the efficacy of anti-itching activity of KM-023 in SLIGRL-NH2 (SEQ ID NO: 1) mouse itching model.
Proteinase-activated receptors (PAR) are a group of G-protein coupled receptors which are activated by cleavage of their terminal sequence by serine proteinases. […] Thus, the administration of the murine PAR2 agonist peptide, SLIGRL-NH2 (SEQ ID NO: 1), is an known and acceptable model to assess anti-pruritic compounds in mice.
32 mice in good health status and corresponding to the specifications details above were included in the in vivo phase.
The animals were weighed before treatment. Induction of itching was performed on animals by intradermal administration of SLIGRL-NH2 (SEQ ID NO: 1) peptide in neck (volume about 20 μL).
Oral route was performed by oral gavage using plastic probe 30 min before induction with SLIGRL-NH2 (SEQ ID NO: 1) peptide.
Animals were placed in plexiglass red walls observation devices (for simultaneous observations of 4 mice). Red walls permitted observations of animals by the operator without the possibility for animals to see the operator. Animals were placed in observation cages before induction for 20 to 30 minutes.
Intradermal injections of SLIGRL (SEQ ID NO: 1) was performed on vigil animals in shaved neck and video recording was initiated immediately after injection for a duration of 30 minutes.
Manual image analysis was performed on recorded movies.
Scratching/itching bouts were counted on 6 time periods of 5 minutes (total of 30 min for each mouse).
The scratches were counted at predefined time intervals of 5 minutes post induction and 30 minutes post induction.

[2] = rat, in vivo
Description: The rats per group for either skin or CSF sample collection contains 9 rats.
Animals were allocated randomly into the following treatment groups.
Group 1: Control—2 untreated, naïve animals for the collection of blood, skin, and CSF at the point of euthanasia.
The same 3 rats were allocated to each alternating time point of bleeding.
Samples of plasma, skin and CSF were sent to Swiss BioQuant AG, Reinach, Switzerland for further analysis.
The extravascular model was used for oral dosing. Sparse sampling option was used for plasma concentration.
The following pharmacokinetic parameters were estimated from the plasma, skin and CSF concentration versus time curve:
tmax Time to reach the maximum plasma concentration read directly from the individual plasma concentration-time curve.
Cmax Maximum plasma concentration read directly from the individual plasma concentration-time curve.
Cmax/doseCmax corrected for dose.
AUC0-t Area under the plasma concentration-time curve from time point zero to last measurable concentration. AUC0-t was calculated according to the “linear up log down” trapezoidal rule.
AUC0-8 h Area under the plasma concentration-time curve from time point zero to time point 8 h after dosing. AUC0-8 h was calculated according to the “linear up log down” trapezoidal rule.
AUC0-8 h/dose AUC0-8 h corrected for dose

[3] = set-up: species or system mice; conditions: mouse, in vivo, po
Experimental: At the beginning of the study, 3 mice were weight before compound treatment. Group of 3 mice received an increasing dose of KM-023 every 24 hours 1 mg/kg, 10 mg/kg, 30 mg/kg, 100 mg/kg, 500 mg/kg once daily, in a volume of 0.2 ml, administered orally. The mice were weighed daily before treatment.
At the end of the experiment, the mice were sacrificed with CO2.

[4] = minipig, in vivo
Experimental: To assess PK profile of escalating doses of KM-023 administered via PO and IV routes. Animal care was carried out as described above. Animals were observed daily throughout the study period.
PK samples were obtained in the following time points:
On Day 0 and Day 1—time 0, 5 min post injection, 30 min post injection, 1 h post injection, 2 h post injection, 6 h post injection, 24 h post injection (on the following day)
On Day 2, 5 min post injection, 30 min post injection, 1 h post injection, 2 h post injection, 6 h post injection
Plasma samples for PK analysis have been send to Swiss BioQuant AG, Switzerland for further processing.
Methodology used for the detection of KM-023 in minipigs plasma is described in above. In both animals dosed with test item, exposure to KM-023 was detected.

[5] = tested on: SLIGRL-NH2 itching mouse model; experiment: SLIGRL-NH2 itching mouse model (Example 17); type: in vivo; conditions: pre-treatment with either dose of oral KM-023
[6] = tested on: DS-Nh mice (TRPV3 Gly573Ser gain-of-function mutation); experiment: Efficacy of KM-001 in DS-Nh mouse model (skin histology, dermatitis scoring); conditions: topical ointment on cheek, Day 14, KM-001 1% and 0.3%, Tacrolimus 0.1%
Experimental: Mice were identified by left ear punch. […] On Day −30, −23, −20, −14, −9, −2, 0, 3, 7, 10, 14, erythema and edema of the mice face have been scored on the right and left sides according to criteria in table 21 (Dermatitis scoring criteria).
The viability, clinical signs and behavior were monitored daily. Body weight was recorded daily. […] Mice were monitored just and 7 hours after administration. Animals in all groups were sacrificed at Day 14 by exsanguination through abdominal vena cava under isoflurane.
For skin samples, the skin at the inflammation site from both cheeks of the face were collected. For histological analyses, the skin was fixed in 4% paraformaldehyde for 24 hours. After fixation, these specimens were processed to paraffin embedding for H&E staining, MT staining and immunohistochemistry and toluidine blue staining.
Skin sections taken from facial treated area of each mouse are fixed in paraffin and stained with Hematoxylin & Eosin.

In the case of `Cc1nc(C(=O)N2CCC(c3ccc(-c4ccccc4C4CC4)cc3CO)C2)ccc1O` (stereo not drawn) [KM-023], the “Decrease of number of scratches” value ([1]; oral KM-023 1 mg/kg group) is reported as 56.25%, the “Decrease of number of scratches” value ([1]; oral KM-023 10 mg/kg group) is reported as 68.8% and the Anti-itching effect ([1]; oral pretreatment, SLIGRL induced scratch behaviour) is reported as “anti-pruritic activity”. For the same molecule, the “Dose proportionality of plasma AUC0-8 h” value [2] was “roughly more than dose proportional manner”, the “BBB crossing / CNS entry” value ([2]; po) was “does not cross BBB” and the “Distribution in CSF” value ([2]; po) was “did not distribute well in CSF”. The Distribution in skin ([2]; po) was “distributed well in skin”, the Systemic absorption ([2]; po) was “acceptable systemic absorption” and the tmax in plasma ([2]; po, 20 mg/kg) was 15 min. The “Exposure ratio CSF/plasma of AUC0-8 h” value ([2]; po, 60 mg/kg) was 0.0150-0.0162, the “Exposure ratio skin/plasma of AUC0-8 h” value ([2]; po, 60 mg/kg) was 0.437-0.816 and the tmax ([2]; po, 60 mg/kg) was 0.250. For the same molecule, the “tmax in CSF” value ([2]; po, 60 mg/kg) was 15 min, the tmax in plasma ([2]; po, 60 mg/kg) was 30 min and the tmax in skin ([2]; po, 60 mg/kg) was 15 min to 1-hour. The “Maximal Feasible Dose (MFD)” value [3] was 500 mg/kg, the “KM-023 concentrations at 24 h post-dose” value [4] was “above 0.300 ng/mL” and the abnormal clinical signs [4] was “No abnormal clinical signs were observed”. For the same molecule, the “bioavailability of the KM-023 formulation” value [4] was 0.2-0.8%, the blood exposure [4] was “dose dependent blood exposure” and the tmax [4] was 49.8 min. For the same molecule, the Half-time ([4]; iv) was 3.3 to 4.2 h, the “apparent maximum concentration time (tmax)” value ([4]; iv) was 5 min and the AUC0-8 h ([4]; iv, 1 mg/kg) was 314 ng·h/mL. For the same molecule, the AUC0-h ([4]; iv, 1 mg/kg) was 320 ng·h/mL, the “AUC0-t/dose (lower part of table, beside AUC0-h)” value ([4]; iv, 1 mg/kg) was 320 (h * ng/mL)/(mg/kg) and the “AUC0-t/dose (upper part of table, beside AUC0-8 h)” value ([4]; iv, 1 mg/kg) was 314 (h * ng/mL)/(mg/kg). The C0 ([4]; iv, 1 mg/kg) was 422 ng/mL, the Vz/F ([4]; iv, 1 mg/kg) was 19.1 L/kg and the AUC0-8 h ([4]; iv, 5 mg/kg) was 1300 ng·h/mL. The AUC0-h ([4]; iv, 5 mg/kg) was 1300 ng·h/mL, the “AUC0-t/dose (lower part of table, beside AUC0-h)” value ([4]; iv, 5 mg/kg) was 261 (h * ng/mL)/(mg/kg) and the “AUC0-t/dose (upper part of table, beside AUC0-8 h)” value ([4]; iv, 5 mg/kg) was 260 (h * ng/mL)/(mg/kg). For the same molecule, the C0 ([4]; iv, 5 mg/kg) was 2340 ng/mL, the Vz/F ([4]; iv, 5 mg/kg) was 18.2 L/kg and the AUC0-8 h ([4]; iv, 10 mg/kg) was 2800 ng·h/mL. The AUC0-h ([4]; iv, 10 mg/kg) was 2910 ng·h/mL, the “AUC0-t/dose (lower part of table, beside AUC0-h)” value ([4]; iv, 10 mg/kg) was 291 (h * ng/mL)/(mg/kg) and the “AUC0-t/dose (upper part of table, beside AUC0-8 h)” value ([4]; iv, 10 mg/kg) was 280 (h * ng/mL)/(mg/kg). For the same molecule, the C0 ([4]; iv, 10 mg/kg) was 6880 ng/mL, the “time of maximum concentration (tmax)” value ([4]; po) was 5 to 30 min and the AUC0-24 h ([4]; po, 1 mg/kg) was 0.442 ng·h/mL. The AUC0-t/dose ([4]; po, 1 mg/kg) was 0.442 kg·ng·h/mL/mg, the “AUC0-∞” value ([4]; po, 1 mg/kg) was 0.596 ng·h/mL and the AUC0-24 h ([4]; po, 5 mg/kg) was 1.31 ng·h/mL. For the same molecule, the AUC0-t/dose ([4]; po, 5 mg/kg) was 0.262 kg·ng·h/mL/mg, the “AUC0-∞” value ([4]; po, 5 mg/kg) was 2.01 ng·h/mL and the AUC0-24 h ([4]; po, 10 mg/kg) was 23.2 ng·h/mL. The AUC0-t ([4]; po, 10 mg/kg) was 31.2 ng·h/mL, the AUC0-t/dose ([4]; po, 10 mg/kg) was 2.32 kg·ng·h/mL/mg and the “AUC0-∞” value ([4]; po, 10 mg/kg) was 23.2 ng·h/mL. The “AUC0-∞/dose” value ([4]; po, 10 mg/kg) was 3.12 kg·ng·h/mL/mg and the “number of scratches observed 30 minutes post induction” value [5] was “decrease the number of scratches”.

For `C=CC[C@@H]1/C=C(\C)C[C@H](C)C[C@H](OC)[C@H]2O[C@@](O)(C(=O)C(=O)N3CCCC[C@H]3C(=O)O[C@H](/C(C)=C/[C@@H]3CC[C@@H](O)[C@H](OC)C3)[C@H](C)[C@@H](O)CC1=O)[C@H](C)C[C@@H]2OC` [Tacrolimus, reference compound], the “Skin pathology (H&E histology: epidermis, inflammation)” value [6] was “only slightly improved skin pathology”.
